# According to US9492471B2, “Methods of treating a disease or disorder associated with Bruton'S Tyrosine Kinase” (Celgene Avilomics Research, Inc., priority 2013, dated 2016):
# Like-named read-outs stand apart in the source and are kept apart here.
# Key:
# Test in all cases: HotSpot kinase profiling
# Type in all cases: biochemical
# ERK5/MAPK7 = molecular target: T1, ERK5/MAPK7 (Homo sapiens, UniProt Q13164)
# T1 construct: purchased Reaction Biology Corp
# Method in brief: (§1)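 P81 filtration radiometric readout; 2 h incubation at room temperature; 0.1% phosphoric acid wash; DMSO negative control; % inhibition, mean of replicate runs.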
# MEK2 = molecular target: T2, MEK2 (Homo sapiens, UniProt P36507)
# T2 construct: purchased Reaction Biology Corp
# Method in brief: as §1
# MRCKa/CDC42BPA = molecular target: T3, MRCKa/CDC42BPA (Homo sapiens, UniProt Q5VT25)
# T3 construct: purchased Reaction Biology Corp
# Method in brief: as §1
# STK16 = molecular target: T4, STK16 (Homo sapiens, UniProt O75716)
# T4 construct: purchased Reaction Biology Corp
# Method in brief: as §1
# MARK4 = molecular target: T5, MARK4 (Homo sapiens, UniProt Q96L34)
# T5 construct: purchased Reaction Biology Corp
# T5 sequence (Q96L34 1-752): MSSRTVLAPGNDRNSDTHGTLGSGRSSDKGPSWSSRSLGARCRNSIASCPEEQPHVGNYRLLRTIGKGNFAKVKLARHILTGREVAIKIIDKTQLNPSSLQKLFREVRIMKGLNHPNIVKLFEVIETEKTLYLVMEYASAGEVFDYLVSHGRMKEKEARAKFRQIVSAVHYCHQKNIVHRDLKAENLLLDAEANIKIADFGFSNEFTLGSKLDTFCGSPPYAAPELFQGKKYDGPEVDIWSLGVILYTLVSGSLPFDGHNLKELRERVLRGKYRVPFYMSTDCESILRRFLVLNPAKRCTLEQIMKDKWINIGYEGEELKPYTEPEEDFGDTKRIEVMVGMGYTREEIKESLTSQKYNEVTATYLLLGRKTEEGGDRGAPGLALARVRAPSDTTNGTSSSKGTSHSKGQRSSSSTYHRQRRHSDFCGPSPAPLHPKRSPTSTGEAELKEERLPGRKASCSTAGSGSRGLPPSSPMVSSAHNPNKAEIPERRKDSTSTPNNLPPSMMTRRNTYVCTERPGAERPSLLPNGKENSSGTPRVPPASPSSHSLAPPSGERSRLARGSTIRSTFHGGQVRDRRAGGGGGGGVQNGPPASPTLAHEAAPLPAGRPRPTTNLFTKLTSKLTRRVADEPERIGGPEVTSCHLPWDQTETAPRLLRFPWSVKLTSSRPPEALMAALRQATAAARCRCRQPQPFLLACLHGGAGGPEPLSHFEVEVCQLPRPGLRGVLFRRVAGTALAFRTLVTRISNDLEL
# Method in brief: as §1
# DMPK2 = molecular target: T6, DMPK2 (Homo sapiens, UniProt Q6DT37)
# T6 construct: purchased Reaction Biology Corp
# Method in brief: as §1
# NEK3 = molecular target: T7, NEK3 (Homo sapiens, UniProt P51956)
# T7 construct: purchased Reaction Biology Corp
# T7 sequence (P51956 1-506): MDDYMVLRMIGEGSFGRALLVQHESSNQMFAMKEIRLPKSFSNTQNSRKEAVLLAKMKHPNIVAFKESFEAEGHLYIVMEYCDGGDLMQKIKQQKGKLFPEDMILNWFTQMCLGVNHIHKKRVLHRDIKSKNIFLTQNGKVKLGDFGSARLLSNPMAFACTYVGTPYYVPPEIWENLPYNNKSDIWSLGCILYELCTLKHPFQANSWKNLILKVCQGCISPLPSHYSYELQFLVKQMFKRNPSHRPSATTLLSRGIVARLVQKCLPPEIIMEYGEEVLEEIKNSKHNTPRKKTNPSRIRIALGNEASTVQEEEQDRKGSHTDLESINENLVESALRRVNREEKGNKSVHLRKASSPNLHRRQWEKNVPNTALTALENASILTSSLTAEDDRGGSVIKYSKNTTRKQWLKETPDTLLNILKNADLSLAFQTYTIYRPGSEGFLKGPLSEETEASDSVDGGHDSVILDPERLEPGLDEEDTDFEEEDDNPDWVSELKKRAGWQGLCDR
# Method in brief: as §1
# Btk = molecular target: T8, Btk (Homo sapiens, UniProt Q06187)
# T8 construct: purchased Reaction Biology Corp
# Method in brief: as §1
# ERBB4/HER4 = molecular target: T9, ERBB4/HER4 (Homo sapiens, UniProt Q15303)
# T9 construct: purchased Reaction Biology Corp
# Method in brief: as §1
# [1] = read-out: % Enzyme Activity (relative to DMSO controls) Run 1
# [2] = read-out: % Enzyme Activity (relative to DMSO controls) Run 2
# T2 sequence (P36507 whole entry): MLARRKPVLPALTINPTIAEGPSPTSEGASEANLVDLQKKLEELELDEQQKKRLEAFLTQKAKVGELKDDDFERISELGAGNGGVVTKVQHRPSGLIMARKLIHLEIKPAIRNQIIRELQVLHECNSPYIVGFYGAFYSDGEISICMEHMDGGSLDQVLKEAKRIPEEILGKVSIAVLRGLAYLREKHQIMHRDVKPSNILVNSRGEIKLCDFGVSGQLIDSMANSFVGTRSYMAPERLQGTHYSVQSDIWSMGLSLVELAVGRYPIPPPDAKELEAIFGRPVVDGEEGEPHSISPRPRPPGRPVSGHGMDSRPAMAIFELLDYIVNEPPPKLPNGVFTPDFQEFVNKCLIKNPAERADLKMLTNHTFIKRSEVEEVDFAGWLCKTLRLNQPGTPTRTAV
# T6 sequence (Q6DT37 whole entry): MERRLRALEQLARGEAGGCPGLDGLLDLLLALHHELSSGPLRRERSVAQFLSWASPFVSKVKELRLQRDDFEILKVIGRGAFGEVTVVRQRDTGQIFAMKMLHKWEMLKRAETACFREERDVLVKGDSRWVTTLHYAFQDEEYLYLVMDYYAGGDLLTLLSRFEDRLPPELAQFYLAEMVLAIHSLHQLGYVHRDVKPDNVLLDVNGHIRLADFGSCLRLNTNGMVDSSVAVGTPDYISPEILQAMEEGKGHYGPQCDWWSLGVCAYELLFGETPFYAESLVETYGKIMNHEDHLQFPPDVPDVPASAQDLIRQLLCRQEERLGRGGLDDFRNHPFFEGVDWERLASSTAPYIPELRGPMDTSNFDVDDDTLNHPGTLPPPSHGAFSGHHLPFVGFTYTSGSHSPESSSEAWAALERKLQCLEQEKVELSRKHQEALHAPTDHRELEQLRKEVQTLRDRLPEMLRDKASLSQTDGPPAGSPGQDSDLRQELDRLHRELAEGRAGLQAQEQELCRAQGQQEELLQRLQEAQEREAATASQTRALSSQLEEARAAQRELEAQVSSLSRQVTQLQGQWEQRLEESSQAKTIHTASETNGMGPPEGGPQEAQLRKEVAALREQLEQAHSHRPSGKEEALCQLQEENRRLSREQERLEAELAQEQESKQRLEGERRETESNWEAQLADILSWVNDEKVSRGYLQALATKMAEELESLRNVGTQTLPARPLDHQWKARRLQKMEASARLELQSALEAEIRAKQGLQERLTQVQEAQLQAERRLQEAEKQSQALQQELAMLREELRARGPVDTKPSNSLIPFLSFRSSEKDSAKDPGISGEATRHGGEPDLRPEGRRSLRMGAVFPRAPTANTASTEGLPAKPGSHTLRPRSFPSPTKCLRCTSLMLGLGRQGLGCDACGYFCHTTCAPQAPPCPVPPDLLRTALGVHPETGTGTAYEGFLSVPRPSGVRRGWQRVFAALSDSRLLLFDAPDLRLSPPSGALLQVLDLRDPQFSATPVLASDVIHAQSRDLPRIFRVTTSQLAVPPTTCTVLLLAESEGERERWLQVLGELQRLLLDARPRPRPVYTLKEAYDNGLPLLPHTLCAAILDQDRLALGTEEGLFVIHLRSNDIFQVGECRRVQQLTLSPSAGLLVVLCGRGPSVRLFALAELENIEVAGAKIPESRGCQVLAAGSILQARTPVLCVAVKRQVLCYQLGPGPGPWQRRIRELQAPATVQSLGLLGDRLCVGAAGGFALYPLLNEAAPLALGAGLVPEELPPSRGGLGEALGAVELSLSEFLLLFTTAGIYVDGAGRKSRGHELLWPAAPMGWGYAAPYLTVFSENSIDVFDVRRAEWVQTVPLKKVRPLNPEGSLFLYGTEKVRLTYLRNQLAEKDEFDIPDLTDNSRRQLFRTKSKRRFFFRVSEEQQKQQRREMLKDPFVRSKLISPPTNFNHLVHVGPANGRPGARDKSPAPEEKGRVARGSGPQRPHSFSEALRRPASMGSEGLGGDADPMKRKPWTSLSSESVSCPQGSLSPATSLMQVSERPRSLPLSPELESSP
# T3 sequence (Q5VT25 whole entry): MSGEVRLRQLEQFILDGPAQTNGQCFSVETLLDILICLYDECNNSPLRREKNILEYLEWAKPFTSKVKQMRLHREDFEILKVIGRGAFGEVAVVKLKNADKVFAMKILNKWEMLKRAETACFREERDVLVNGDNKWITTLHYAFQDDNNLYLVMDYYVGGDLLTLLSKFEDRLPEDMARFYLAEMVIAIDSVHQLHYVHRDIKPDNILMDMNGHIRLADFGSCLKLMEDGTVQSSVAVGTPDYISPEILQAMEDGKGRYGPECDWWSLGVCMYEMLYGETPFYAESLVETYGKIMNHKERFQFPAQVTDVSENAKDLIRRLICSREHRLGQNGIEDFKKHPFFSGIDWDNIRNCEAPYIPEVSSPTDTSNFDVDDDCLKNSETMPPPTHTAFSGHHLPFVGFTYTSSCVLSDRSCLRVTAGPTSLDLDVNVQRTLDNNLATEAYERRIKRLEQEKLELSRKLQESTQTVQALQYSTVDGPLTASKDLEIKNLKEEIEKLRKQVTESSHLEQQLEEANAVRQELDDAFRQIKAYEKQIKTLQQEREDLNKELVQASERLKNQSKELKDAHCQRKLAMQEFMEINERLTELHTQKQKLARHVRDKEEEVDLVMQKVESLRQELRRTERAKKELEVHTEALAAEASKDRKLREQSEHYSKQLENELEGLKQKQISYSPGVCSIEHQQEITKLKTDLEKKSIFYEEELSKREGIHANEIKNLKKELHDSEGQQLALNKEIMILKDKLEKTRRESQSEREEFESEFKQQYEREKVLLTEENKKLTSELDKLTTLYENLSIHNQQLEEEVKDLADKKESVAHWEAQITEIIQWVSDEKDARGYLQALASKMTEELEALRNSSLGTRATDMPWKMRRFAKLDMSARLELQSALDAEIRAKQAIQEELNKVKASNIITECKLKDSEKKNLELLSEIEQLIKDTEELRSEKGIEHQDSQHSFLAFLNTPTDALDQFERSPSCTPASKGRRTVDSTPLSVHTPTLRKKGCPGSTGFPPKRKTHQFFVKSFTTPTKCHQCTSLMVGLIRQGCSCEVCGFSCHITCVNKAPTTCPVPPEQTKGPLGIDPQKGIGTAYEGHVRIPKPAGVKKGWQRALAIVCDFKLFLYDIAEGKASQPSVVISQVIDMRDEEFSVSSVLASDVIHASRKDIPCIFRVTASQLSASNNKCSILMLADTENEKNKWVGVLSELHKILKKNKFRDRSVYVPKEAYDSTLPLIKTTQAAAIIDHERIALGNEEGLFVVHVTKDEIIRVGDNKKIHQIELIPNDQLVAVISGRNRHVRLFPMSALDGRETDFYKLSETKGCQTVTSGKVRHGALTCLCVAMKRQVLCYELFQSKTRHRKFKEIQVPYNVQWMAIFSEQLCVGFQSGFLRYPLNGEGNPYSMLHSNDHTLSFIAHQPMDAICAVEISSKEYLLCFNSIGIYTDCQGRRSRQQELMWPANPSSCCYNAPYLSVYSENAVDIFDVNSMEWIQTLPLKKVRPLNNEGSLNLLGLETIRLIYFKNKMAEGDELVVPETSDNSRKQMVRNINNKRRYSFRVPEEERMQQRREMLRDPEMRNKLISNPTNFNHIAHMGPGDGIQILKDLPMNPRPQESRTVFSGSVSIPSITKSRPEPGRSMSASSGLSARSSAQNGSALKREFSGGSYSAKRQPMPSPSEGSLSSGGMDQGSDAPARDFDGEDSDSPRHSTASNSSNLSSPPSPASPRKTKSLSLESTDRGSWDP
# T4 sequence (O75716 whole entry): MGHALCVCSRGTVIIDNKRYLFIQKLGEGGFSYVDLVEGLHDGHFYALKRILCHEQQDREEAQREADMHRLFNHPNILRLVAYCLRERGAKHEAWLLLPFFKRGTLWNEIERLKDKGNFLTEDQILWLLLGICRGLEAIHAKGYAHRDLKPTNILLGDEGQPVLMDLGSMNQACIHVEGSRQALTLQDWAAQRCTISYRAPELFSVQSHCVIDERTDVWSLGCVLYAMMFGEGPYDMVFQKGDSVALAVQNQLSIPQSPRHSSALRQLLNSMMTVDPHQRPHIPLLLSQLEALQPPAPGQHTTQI
# T1 sequence (Q13164 whole entry): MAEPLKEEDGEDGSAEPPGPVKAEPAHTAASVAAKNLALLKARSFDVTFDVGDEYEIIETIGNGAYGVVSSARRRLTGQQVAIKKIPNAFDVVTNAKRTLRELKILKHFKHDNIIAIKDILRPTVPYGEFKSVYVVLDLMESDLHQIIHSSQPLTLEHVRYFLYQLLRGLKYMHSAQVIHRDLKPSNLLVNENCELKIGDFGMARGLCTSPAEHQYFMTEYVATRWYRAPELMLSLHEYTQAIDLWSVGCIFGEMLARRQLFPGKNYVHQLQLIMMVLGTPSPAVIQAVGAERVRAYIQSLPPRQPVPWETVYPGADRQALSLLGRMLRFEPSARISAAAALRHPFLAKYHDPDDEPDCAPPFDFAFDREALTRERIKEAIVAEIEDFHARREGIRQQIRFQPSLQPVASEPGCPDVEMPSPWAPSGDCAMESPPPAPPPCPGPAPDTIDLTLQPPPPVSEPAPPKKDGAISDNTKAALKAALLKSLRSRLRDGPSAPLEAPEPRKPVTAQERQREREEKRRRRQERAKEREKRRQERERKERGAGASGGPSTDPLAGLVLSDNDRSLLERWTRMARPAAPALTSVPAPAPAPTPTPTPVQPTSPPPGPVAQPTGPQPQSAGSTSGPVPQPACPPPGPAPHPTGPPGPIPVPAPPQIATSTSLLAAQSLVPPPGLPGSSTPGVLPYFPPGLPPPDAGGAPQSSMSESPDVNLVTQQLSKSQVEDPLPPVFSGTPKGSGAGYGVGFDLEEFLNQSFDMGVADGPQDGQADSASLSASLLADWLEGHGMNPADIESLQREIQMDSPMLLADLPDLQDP
smiles,measurement,setting,value
C=CC(=O)Nc1cccc(Nc2nc(Nc3ccc(OCCOC)c(F)c3)ncc2F)c1 [Compound 2],inhibition at 3 µM,ERK5/MAPK7,-0.37%
same,remaining activity at 3 µM,ERK5/MAPK7; [1],101%
same,remaining activity at 3 µM,ERK5/MAPK7; [2],99.9%
same,inhibition at 3 µM,MEK2,-5.66%
same,remaining activity at 3 µM,MEK2; [1],106%
same,remaining activity at 3 µM,MEK2; [2],105%
same,inhibition at 3 µM,MRCKa/CDC42BPA,-14.3%
same,remaining activity at 3 µM,MRCKa/CDC42BPA; [1],114%
same,remaining activity at 3 µM,MRCKa/CDC42BPA; [2],115%
same,inhibition at 3 µM,STK16,78%
same,remaining activity at 3 µM,STK16; [1],22.9%
same,remaining activity at 3 µM,STK16; [2],21%
same,inhibition at 3 µM,MARK4,18.5%
same,remaining activity at 3 µM,MARK4; [1],82.2%
same,remaining activity at 3 µM,MARK4; [2],80.9%
same,inhibition at 3 µM,DMPK2,1.54%
same,remaining activity at 3 µM,DMPK2; [1],97.4%
same,remaining activity at 3 µM,DMPK2; [2],99.6%
same,inhibition at 3 µM,NEK3,24.1%
same,remaining activity at 3 µM,NEK3; [1],76.7%
same,remaining activity at 3 µM,NEK3; [2],75.1%
same,inhibition at 3 µM,Btk,95.5%
same,remaining activity at 3 µM,Btk; [1],3.69%
same,remaining activity at 3 µM,Btk; [2],5.4%
same,inhibition at 3 µM,ERBB4/HER4,91.3%
same,remaining activity at 3 µM,ERBB4/HER4; [1],9.15%
same,remaining activity at 3 µM,ERBB4/HER4; [2],8.32%
